Assay results reported in article PMC10699557, “A recombinant approach for stapled peptide discovery yields inhibitors of the RAD51 recombinase” (Chemical Science, 2023).
Numbered stars: 1 amine (or outer) side, 2 acyl side, 3 side chain; on linkers, the order of the positions; unused ones are H or OH. Bridge positions count the residues as written; N and C are the ends. Peptide text beside a SMILES is read from it. X1 = Nc1nc(CC[*:1])cc(CC[*:2])n1

Columns and labels:
[1] = test system: RAD51:dT60 nucleoprotein filament (full-length human RAD51); experiment: Electrophoretic mobility shift assay (EMSA) of nucleoprotein filament disruption; format: biochemical; details: 5 μM full-length human RAD51, 100 nM FAM-dT60, varying peptide concentrations; 50 mM HEPES pH 7.4, 1 mM ATP
Protocol: We evaluated the effect of stapled peptides SP2, SP24 and SP30 on the nucleoprotein filament using electrophoretic mobility shift assay (EMSA, Fig. 3D). A fluorescently labelled dT60 oligonucleotide was incubated with full-length RAD51, after which the peptides were added at different concentrations before separating the products on a polyacrylamide gel.
(§1) Isothermal titration calorimetry
(§2) Peptides were resuspended in MilliQ water to 10 times the desired final concentration.
This was then diluted 10x with the ITC buffer to obtain the final titrant solution (20 mM CHES pH 9.5, 150 mM NaCl, 0.1% Tween-20). HumRadA22 was buffer-exchanged on a NAP-5 desalting column (Cytiva) into ITC buffer and protein concentration was adjusted to 10:9 of the desired final value. One ninth volume of MilliQ water was added to the solution to bring the protein concentration to the desired final value, while maintaining identical buffer:MilliQ volume proportions in both the syringe and the cell. ITC was carried out using a Microcal ITC200 or Malvern PEAQ ITC instruments at 25°C with a 5.00 μCal reference power DP value, stirring speed of 500-750 rpm, 2 sec filter period. Injection spacing, speed and volume, cell/syringe concentrations as well as the number of injections were adjusted for each peptide and its binding properties. ITC data were fitted using a single-site binding model using the Microcal ITC data analysis program in the Origin 7.0 package. Data points affected by baseline spikes were omitted from the analysis.
Circular dichroism spectroscopy
(§3) Dried peptides were dissolved in MilliQ water to 0.3 mg/ml, and then two-fold diluted in 20 mM sodium phosphate, pH 7.4, giving a final solution of 0.15 mg/ml peptide in 10 mM sodium phosphate. CD spectra of selected peptides were recorded on an AVIV 410 circular dichroism spectropolarimeter using a 1 mm path length quartz cuvette. […]
(§4) The ability of linear and stapled BRC repeat peptides to dissociate RAD51-ssDNA nucleofilament was evaluated using an electrophoretic mobility shift assay (EMSA). […]

[2] = molecular target: HumRadA22 (Pyrococcus furiosus, UniProt O74036); experiment: Isothermal titration calorimetry (ITC) of peptide binding; set-up: species or system archaeal RadA mutant with human Rad51 surface residues; details: Fig. S3; stapled Arg9-fused peptide
Protocol: We then evaluated the binding of free peptides to HumRadA22 using FP competition assay and isothermal titration calorimetry (Table 1 and Fig. 3B and C). […] All three peptides SP2, SP24 and SP30 bound with similar low-nanomolar affinities in ITC, and the binding appears to be slightly weaker relative to the linear BRC8-2 template (Fig. 3C).
as §1, §2
This was then diluted 10x with the ITC buffer to obtain the final titrant solution (20 mM CHES pH 9.5, 150 mM NaCl, 0.1% Tween-20). HumRadA22 was buffer-exchanged on a NAP-5 desalting column (Cytiva) into ITC buffer and protein concentration was adjusted to 10:9 of the desired final value. […]
as §3, §4

Compound | Depolymerisation of RAD51 from single-stranded DNA (EMSA) [1] | Binding affinity towards HumRadA22 by ITC (in words) [2]
CC(C)C[C@@H]1NC(=O)[C@H](CCCCN)NC(=O)[C@H](CCCCN)NC(=O)CNC(=O)[C@H](CO)NC(=O)[C@H](C)NC(=O)[C@H]([C@@H](C)O)NC(=O)[C@H](CO)NC(=O)[C@H](Cc2ccccc2)NC(=O)CNC(=O)[C@H](CO)NC(=O)[C@@H](NC(=O)CN)CSCCc2cc(nc(N)n2)CCSC[C@@H](C(=O)N[C@@H](CCC(N)=O)C(=O)N[C@@H](CCCCN)C(=O)N[C@@H](C)C(=O)N[C@H](C(=O)N[C@@H](CCCCN)C(=O)N[C@@H](CC(C)C)C(=O)N[C@@H](Cc2ccccc2)C(=O)N[C@@H](CO)C(=O)NCC(=O)O)C(C)C)NC(=O)[C@H](C)NC(=O)[C@H](CCC(N)=O)NC(=O)[C@H]([C@@H](C)O)NC(=O)[C@H](CO)NC(=O)[C@H](C(C)C)NC(=O)[C@H](CC(N)=O)NC1=O [SP30] (H-GCSGFSTASGKKLNVSTQACQKAVKLFSG-OH; linker 2-20 via X1) | depolymerise RAD51 from single-stranded DNA to similar extent | 
CC(C)C[C@@H]1NC(=O)[C@H](CCCCN)NC(=O)[C@H](CCCCN)NC(=O)CNC(=O)[C@H](CO)NC(=O)[C@H](C)NC(=O)[C@H]([C@@H](C)O)NC(=O)[C@H](CO)NC(=O)[C@H](Cc2ccccc2)NC(=O)CNC(=O)[C@H](CO)NC(=O)[C@@H](NC(=O)CNC(=O)CNC(=O)[C@H](CCCNC(=N)N)NC(=O)[C@H](CCCNC(=N)N)NC(=O)[C@H](CCCNC(=N)N)NC(=O)[C@H](CCCNC(=N)N)NC(=O)[C@H](CCCNC(=N)N)NC(=O)[C@H](CCCNC(=N)N)NC(=O)[C@H](CCCNC(=N)N)NC(=O)[C@H](CCCNC(=N)N)NC(=O)[C@H](CCCNC(=N)N)NC(=O)CN)CSCCc2cc(nc(N)n2)CCSC[C@@H](C(=O)N[C@@H](CCC(N)=O)C(=O)N[C@@H](CCCCN)C(=O)N[C@@H](C)C(=O)N[C@H](C(=O)N[C@@H](CCCCN)C(=O)N[C@@H](CC(C)C)C(=O)N[C@@H](Cc2ccccc2)C(=O)N[C@@H](CO)C(=O)NCC(=O)O)C(C)C)NC(=O)[C@H](C)NC(=O)[C@H](CCC(N)=O)NC(=O)[C@H]([C@@H](C)O)NC(=O)[C@H](CO)NC(=O)[C@H](C(C)C)NC(=O)[C@H](CC(N)=O)NC1=O [SP31] (H-GRRRRRRRRRGGCSGFSTASGKKLNVSTQACQKAVKLFSG-OH; linker 13-31 via X1) |  | high affinity
